Test results published in ChEMBL document CHEMBL1909046, “DrugMatrix in vitro pharmacology data”.

Columns and labels:
[1] = biological target: Beta-3 adrenergic receptor (Homo sapiens, UniProt P13945); experiment: DRUGMATRIX: Adrenergic beta3 radioligand binding (ligand: [125I] Cyanopindolol); format: cell membranes, HEK293, Membrane; conditions: hek293; Not Active = under 50% inhibition at 10 µM
[2] = biological target: T1, Vasoactive intestinal polypeptide receptor 1 (Homo sapiens, UniProt P32241); format: cell membranes, Membrane; conditions: ht-29; also: in other assays of this panel Not Active means under 50% inhibition at 10 µM
T1 sequence (P32241 whole entry): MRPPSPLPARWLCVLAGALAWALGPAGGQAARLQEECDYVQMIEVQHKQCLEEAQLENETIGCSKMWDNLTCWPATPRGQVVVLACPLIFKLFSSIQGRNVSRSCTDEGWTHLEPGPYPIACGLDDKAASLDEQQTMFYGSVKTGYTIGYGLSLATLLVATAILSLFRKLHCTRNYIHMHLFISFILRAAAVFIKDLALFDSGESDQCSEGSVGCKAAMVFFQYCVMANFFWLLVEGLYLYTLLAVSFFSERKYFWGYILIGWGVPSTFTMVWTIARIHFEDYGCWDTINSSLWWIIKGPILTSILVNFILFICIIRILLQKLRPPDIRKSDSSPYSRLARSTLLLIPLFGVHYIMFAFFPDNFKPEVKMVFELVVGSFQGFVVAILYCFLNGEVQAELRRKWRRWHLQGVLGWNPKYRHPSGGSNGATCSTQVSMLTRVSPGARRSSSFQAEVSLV

[3] = biological target: T2, C-C chemokine receptor type 4 (Homo sapiens, UniProt P51679); format: cell membranes, Membrane; conditions: chem-1; also: in other assays of this panel Not Active means under 50% inhibition at 10 µM
T2 sequence (P51679 whole entry): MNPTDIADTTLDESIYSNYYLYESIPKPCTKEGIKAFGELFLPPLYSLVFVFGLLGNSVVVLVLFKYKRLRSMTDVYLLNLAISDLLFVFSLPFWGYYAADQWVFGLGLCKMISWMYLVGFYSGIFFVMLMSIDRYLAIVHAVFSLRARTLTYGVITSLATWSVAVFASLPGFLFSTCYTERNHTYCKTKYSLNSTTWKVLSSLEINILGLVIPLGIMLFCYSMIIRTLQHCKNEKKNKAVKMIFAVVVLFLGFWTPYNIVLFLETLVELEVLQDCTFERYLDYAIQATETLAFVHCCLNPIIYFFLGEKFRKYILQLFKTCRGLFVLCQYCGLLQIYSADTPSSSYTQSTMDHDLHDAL

[4] = biological target: T3, Cholecystokinin receptor type A (Homo sapiens, UniProt P32238); format: cell membranes, Membrane; conditions: 1321-n1; also: in other assays of this panel Not Active means under 50% inhibition at 10 µM
T3 sequence (P32238 whole entry): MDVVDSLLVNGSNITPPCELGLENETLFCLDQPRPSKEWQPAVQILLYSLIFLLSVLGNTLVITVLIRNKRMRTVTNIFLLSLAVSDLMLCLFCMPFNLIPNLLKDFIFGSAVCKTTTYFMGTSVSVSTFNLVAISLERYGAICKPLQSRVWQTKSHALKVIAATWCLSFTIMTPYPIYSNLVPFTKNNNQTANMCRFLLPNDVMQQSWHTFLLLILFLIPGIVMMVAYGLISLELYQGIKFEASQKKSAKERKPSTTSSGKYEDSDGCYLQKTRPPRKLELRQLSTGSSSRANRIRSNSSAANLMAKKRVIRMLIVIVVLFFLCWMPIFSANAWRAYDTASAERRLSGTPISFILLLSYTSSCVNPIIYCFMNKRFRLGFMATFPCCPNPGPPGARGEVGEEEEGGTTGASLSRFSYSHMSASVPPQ

[5] = biological target: T4, D(4) dopamine receptor (Homo sapiens, UniProt P21917); experiment: DRUGMATRIX: Dopamine D4.2 radioligand binding (ligand: [3H] Spiperone); format: cell membranes, CHO-K1, Membrane; conditions: cho-k1; Not Active = under 50% inhibition at 10 µM
T4 sequence (P21917 whole entry): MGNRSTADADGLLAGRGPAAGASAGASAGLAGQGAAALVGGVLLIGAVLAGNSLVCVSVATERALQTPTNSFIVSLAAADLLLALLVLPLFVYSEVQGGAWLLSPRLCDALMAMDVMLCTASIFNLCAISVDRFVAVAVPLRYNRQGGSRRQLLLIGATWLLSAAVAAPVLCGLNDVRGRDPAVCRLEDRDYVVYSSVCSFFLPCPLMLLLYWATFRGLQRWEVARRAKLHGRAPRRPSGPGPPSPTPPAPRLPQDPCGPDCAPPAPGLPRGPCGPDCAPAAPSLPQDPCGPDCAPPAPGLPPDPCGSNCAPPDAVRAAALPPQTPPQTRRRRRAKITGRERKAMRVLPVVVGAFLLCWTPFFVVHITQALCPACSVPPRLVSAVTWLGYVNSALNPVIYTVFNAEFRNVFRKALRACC

[6] = DRUGMATRIX: Interleukin IL-1 radioligand binding (ligand: [125I] interleukin 1beta); format: cell membranes, Membrane; conditions: nih3t3; Not Active = under 50% inhibition at 10 µM
[7] = DRUGMATRIX: Leukotriene, BLT (LTB4) radioligand binding (ligand: [3H]LTB4); format: cell membranes, Membrane; conditions: u-937; Not Active = under 50% inhibition at 10 µM
[8] = biological target: Delta-type opioid receptor (Homo sapiens, UniProt P41143); format: cell membranes, HEK293, Membrane; conditions: hek293; also: in other assays of this panel Not Active means under 50% inhibition at 10 µM
[9] = biological target: Acetylcholinesterase (Homo sapiens, UniProt P22303); experiment: DRUGMATRIX: Acetylcholinesterase enzyme inhibition (substrate: acetylthiocholine); format: cell-based, HEK293; conditions: hek293; Not Active = under 50% inhibition at 10 µM
[10] = biological target: T5, Adenosine receptor A3 (Homo sapiens, UniProt P0DMS8); format: cell membranes, CHO-K1, Membrane; conditions: cho-k1; for Ki: read-out: Ki
T5 sequence (P0DMS8 whole entry): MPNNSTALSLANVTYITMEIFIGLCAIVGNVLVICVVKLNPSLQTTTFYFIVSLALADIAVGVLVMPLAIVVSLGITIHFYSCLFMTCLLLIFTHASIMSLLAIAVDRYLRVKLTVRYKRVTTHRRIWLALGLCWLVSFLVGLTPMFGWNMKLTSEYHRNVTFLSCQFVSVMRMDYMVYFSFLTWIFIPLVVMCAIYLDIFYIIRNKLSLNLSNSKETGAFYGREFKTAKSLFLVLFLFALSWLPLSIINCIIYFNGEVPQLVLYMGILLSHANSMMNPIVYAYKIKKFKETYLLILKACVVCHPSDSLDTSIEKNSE

[11] = biological target: Cytochrome P450 2D6 (Homo sapiens, UniProt P10635); conditions: bti-tn-5b1-4; also: in other assays of this panel Not Active means under 50% inhibition at 10 µM
[12] = biological target: Estrogen receptor beta (Homo sapiens, UniProt Q92731); conditions: sf9; also: in other assays of this panel Not Active means under 50% inhibition at 10 µM
[13] = biological target: Mu-type opioid receptor (Homo sapiens, UniProt P35372); experiment: DRUGMATRIX: Opiate mu (OP3, MOP) radioligand binding (ligand: [3H] Diprenorphine); format: cell membranes, CHO-K1, Membrane; conditions: cho-k1; Not Active = under 50% inhibition at 10 µM
Chain of Mu-type opioid receptor (P35372 whole entry): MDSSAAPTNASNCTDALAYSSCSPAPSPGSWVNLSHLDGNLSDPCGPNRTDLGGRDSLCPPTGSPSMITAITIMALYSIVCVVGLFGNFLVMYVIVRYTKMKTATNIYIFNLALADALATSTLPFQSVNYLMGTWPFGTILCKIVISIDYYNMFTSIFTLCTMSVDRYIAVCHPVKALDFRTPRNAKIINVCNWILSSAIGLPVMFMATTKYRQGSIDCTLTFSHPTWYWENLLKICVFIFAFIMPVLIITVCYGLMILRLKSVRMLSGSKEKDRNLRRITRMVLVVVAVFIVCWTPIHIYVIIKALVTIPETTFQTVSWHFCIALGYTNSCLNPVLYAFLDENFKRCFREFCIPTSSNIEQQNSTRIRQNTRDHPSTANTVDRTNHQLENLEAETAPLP

Chain of Beta-3 adrenergic receptor (P13945 whole entry): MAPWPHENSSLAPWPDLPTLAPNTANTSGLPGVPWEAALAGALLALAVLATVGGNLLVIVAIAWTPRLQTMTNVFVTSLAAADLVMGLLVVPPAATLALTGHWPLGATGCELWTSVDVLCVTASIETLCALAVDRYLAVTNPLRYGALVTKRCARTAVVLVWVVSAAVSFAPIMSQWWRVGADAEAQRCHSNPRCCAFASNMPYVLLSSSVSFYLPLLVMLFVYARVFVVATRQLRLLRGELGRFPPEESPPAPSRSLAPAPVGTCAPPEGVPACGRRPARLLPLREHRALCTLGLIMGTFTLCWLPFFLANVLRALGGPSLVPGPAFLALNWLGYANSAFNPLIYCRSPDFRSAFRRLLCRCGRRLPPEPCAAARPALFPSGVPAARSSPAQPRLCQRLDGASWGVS
Chain of Delta-type opioid receptor (P41143 whole entry): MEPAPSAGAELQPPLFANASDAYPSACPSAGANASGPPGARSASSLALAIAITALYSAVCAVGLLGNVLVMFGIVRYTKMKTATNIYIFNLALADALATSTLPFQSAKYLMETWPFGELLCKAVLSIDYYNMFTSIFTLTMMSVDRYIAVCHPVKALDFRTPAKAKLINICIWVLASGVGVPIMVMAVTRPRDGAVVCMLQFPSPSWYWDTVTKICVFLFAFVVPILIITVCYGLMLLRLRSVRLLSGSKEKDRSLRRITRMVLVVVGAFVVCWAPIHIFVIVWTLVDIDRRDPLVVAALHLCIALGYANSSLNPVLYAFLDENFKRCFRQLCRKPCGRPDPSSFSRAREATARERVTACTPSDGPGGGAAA
Chain of Acetylcholinesterase (P22303 whole entry): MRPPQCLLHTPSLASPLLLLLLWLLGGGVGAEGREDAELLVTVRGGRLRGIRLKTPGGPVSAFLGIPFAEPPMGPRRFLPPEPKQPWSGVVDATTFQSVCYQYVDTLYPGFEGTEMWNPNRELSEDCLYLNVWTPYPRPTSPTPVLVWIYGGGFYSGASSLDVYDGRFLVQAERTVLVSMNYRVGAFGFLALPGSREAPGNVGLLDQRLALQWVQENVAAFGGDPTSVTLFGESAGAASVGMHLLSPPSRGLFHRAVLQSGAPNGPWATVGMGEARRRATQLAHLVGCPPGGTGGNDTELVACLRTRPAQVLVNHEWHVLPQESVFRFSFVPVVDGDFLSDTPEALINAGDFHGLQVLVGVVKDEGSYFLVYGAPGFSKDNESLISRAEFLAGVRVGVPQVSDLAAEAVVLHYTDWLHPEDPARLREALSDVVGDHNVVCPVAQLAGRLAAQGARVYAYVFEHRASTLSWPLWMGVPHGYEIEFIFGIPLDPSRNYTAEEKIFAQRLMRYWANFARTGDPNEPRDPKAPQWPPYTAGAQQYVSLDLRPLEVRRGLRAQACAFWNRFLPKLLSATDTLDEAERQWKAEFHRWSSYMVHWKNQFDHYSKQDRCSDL
Chain of Cytochrome P450 2D6 (P10635 whole entry): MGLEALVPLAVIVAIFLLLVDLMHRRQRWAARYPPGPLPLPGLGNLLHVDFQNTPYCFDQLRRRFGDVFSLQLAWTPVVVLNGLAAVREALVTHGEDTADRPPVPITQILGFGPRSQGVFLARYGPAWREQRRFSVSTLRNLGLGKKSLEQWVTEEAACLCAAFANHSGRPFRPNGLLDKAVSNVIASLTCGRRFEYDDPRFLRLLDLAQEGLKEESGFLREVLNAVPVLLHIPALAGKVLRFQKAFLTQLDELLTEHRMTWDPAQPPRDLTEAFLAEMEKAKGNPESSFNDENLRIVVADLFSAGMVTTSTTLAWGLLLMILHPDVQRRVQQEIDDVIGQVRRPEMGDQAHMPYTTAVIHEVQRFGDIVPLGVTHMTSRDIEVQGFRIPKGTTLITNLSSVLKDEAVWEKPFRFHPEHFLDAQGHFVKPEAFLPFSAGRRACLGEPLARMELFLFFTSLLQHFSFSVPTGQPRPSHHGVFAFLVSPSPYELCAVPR
Chain of Estrogen receptor beta (Q92731 whole entry): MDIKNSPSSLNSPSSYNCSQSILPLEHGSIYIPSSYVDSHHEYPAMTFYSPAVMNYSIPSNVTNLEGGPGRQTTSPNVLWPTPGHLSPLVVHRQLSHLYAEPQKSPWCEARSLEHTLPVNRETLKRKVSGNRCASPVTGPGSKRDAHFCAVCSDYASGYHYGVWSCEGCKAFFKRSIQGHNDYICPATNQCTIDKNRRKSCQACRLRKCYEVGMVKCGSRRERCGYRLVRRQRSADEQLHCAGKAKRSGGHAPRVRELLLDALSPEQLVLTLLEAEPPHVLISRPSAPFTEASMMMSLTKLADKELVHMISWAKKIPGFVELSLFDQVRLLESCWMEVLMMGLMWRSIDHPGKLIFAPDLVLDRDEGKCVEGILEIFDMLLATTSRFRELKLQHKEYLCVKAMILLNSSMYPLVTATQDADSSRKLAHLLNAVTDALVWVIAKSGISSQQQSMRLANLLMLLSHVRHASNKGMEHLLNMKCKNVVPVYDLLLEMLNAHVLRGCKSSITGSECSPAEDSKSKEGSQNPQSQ

| Molecule | IC50 [1] | IC50 [2] | IC50 [3] | IC50 [4] | IC50 [5] | IC50 [6] | Ki [6] | IC50 [7] | Ki [7] | IC50 [8] | IC50 [9] | IC50 [10] | IC50 [11] | Ki [11] | IC50 [12] | IC50 [13] | other results |
| --- | --- | --- | --- | --- | --- | --- | --- | --- | --- | --- | --- | --- | --- | --- | --- | --- | --- |
| CCCC[C@@H](CC)COC(=O)c1ccccc1C(=O)OC[C@@H](CC)CCCC [BIS(2-ETHYLHEXYL)PHTHALATE] | Not Active | Not Active | Not Active | Not Active | Not Active | Not Active | Not Active | Not Active | Not Active | Not Active | Not Active | Not Active | Not Active | Not Active | Not Active | – | – |
| GOLD SODIUM THIOMALATE | Not Active | Not Active | Not Active | Not Active | Not Active | Not Active | Not Active | Not Active | Not Active | Not Active | Not Active | – | Not Active | Not Active | Not Active | – | Ki [1]: Not Active; Ki [2]: Not Active; Ki [3]: Not Active; Ki [4]: Not Active; Ki [5]: Not Active; Ki [8]: Not Active; Ki [9]: Not Active; IC50 ([10]; read-out: IC50): 1490 nM; Ki [10]: 843 nM; Ki [12]: Not Active |
| CISPLATIN | Not Active | Not Active | Not Active | Not Active | Not Active | Not Active | Not Active | Not Active | Not Active | Not Active | Not Active | – | Not Active | Not Active | Not Active | – | Ki [1]: Not Active; Ki [2]: Not Active; Ki [3]: Not Active; Ki [4]: Not Active; Ki [5]: Not Active; Ki [8]: Not Active; Ki [9]: Not Active; IC50 ([10]; read-out: IC50): 4240 nM; Ki [10]: 2400 nM; Ki [12]: Not Active |
| CCCSc1ccc2nc(NC(=O)OC)[nH]c2c1 [ALBENDAZOLE] | Not Active | Not Active | Not Active | Not Active | Not Active | Not Active | Not Active | Not Active | Not Active | Not Active | Not Active | Not Active | Not Active | Not Active | – | Not Active | – |
| CN1C(C(=O)Nc2ccccn2)=C(O)c2ccccc2S1(=O)=O [PIROXICAM] | Not Active | Not Active | Not Active | Not Active | Not Active | Not Active | Not Active | Not Active | Not Active | Not Active | Not Active | Not Active | Not Active | Not Active | – | Not Active | – |
| CCCc1cc(=O)[nH]c(=S)[nH]1 [PROPYLTHIOURACIL] | Not Active | Not Active | Not Active | Not Active | Not Active | Not Active | Not Active | Not Active | Not Active | Not Active | Not Active | Not Active | Not Active | Not Active | – | Not Active | – |
| CC=CC(=O)N(CC)c1ccccc1C | Not Active | Not Active | Not Active | Not Active | Not Active | Not Active | Not Active | Not Active | Not Active | Not Active | Not Active | Not Active | Not Active | Not Active | – | Not Active | – |
| O=C1NC(=O)C(c2ccccc2)(c2ccccc2)N1 [PHENYTOIN] | Not Active | Not Active | Not Active | Not Active | Not Active | Not Active | Not Active | Not Active | Not Active | Not Active | Not Active | Not Active | Not Active | Not Active | – | Not Active | – |
| NCC1(CC(=O)O)CCCCC1 [GABAPENTIN] | Not Active | Not Active | Not Active | Not Active | Not Active | Not Active | Not Active | Not Active | Not Active | Not Active | Not Active | Not Active | Not Active | Not Active | – | Not Active | – |
